The values below come from PubChem BioAssay (NCI).

What all share (test): DTP human tumour cell line panel, 48 h
The subject of assay [1] is HOP-18 NSCLC.
Assay [2] deals with NCI-H23 lung.
Assay [3] has as its system OVCAR-3 ovarian.
Assay [4] deals with RPMI-8226 leukemia.
In assay [5] the test system is RXF 393 renal.
Assay [6] concerns SNB-78 CNS.
For assay [7], the system named is UO-31 renal.
Assay [8] relates to DMS 114 small cell lung.
The test system of assay [9] is HS 578T breast.
Assay [10] concerns MDA-MB-231 breast.
The subject of assay [11] is T-47D breast.

Usually TGI stands for the concentration at which net growth stops. A lower TGI goes with more potent growth arrest. A word on the GI50: it is the concentration at which growth is held to half of that of the control.

The structures appear in SMILES notation.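 Cells were grown in 96-well plates and exposed to each compound for 48 hours at five concentrations; endpoints were interpolated linearly between bracketing concentrations, or set to the highest concentration if not reached. GI50 is the concentration that inhibits growth by half. Definition used: TGI = concentration required for complete inhibition of growth.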 A value given as a limit tells only on which side of the number the result lay.

In the case of `COC(=O)c1ccccc1N=Cc1ccc(N(CCC#N)S(=O)(=O)c2ccccc2)cc1`, the TGI in assay [1], in assay [2], in assay [3], in assay [4], in assay [5] and in assay [6] was greater than 100 µM throughout. The concentration for total growth inhibition (TGI) in assay [7] was greater than 100 µM.
In the case of `O=C1c2ccccc2C2(O)Oc3cccc(O)c3C12O` (stereo unspecified), the TGI in assay [8], in [1], in [2], in [3], in [4] and in assay [6] was greater than 100 µM each time. The compound further gave a TGI in [7] greater than 100 µM.
Take `COc1cc(/C=C2\CCc3ccccc3C2=O)cc(OC)c1OC`: the TGI in assay [8] was 25.1 µM; in [1] it was 26.9 µM; in [2] it was 29.2 µM; in assay [3], 30.1 µM; in assay [4], 31.3 µM; in assay [5] it was 29 µM. Moreover, the figures for the TGI in assay [6] and in [7] were 74.1 µM and 30.7 µM, respectively.
Take `O=C(O/N=C1/CCCC/C1=C\c1ccccc1)c1ccc(Cl)cc1`: the TGI in [1], in [2], in [3], in [4], in assay [5] and in assay [6] was greater than 100 µM throughout. In addition, the TGI in assay [7] was greater than 100 µM.
As for `CC1=N/C(=C\c2ccc([N+](=O)[O-])cc2)C(=O)O1`, the TGI in [8], in [1], in assay [2], in [3], in assay [4] and in assay [5] was greater than 100 µM each time. Further, the TGI in assay [6] and in [7] was greater than 100 µM in each case.
Take `Cc1nc2ccc(NCCN(C)C)c3c(=O)c4cc(O)ccc4n1c23`: the TGI in assay [8] turned out to be 2.14 µM; in assay [9] it was 2.77 µM; in assay [10], 13.2 µM; in assay [2], 2.05 µM; in assay [3], 9.94 µM; in [4] it was 6.23 µM. Further, the TGI in assay [11] was 14.8 µM; in assay [7], 9.14 µM.
Regarding `Cn1cnc([N+](=O)[O-])c1Sc1nnc(C(F)(F)F)n1C`, the TGI in assay [8] is greater than 100 µM; in assay [1], 76.2 µM; in assay [2], greater than 100 µM; in assay [3] it was 55.6 µM; in [4], 49.9 µM; in assay [6], greater than 100 µM. In [7], the TGI was greater than 100 µM.
As for `CC(C)(C)C(=O)OCC(COC(=O)C(C)(C)C)[N+](=O)[O-]`, the TGI in assay [8], in assay [2], in assay [3], in assay [4], in assay [5] and in [7] was greater than 100 µM each time.
For `CC1(CO)C(=O)OC12CCCCC2` (stereo unspecified), the TGI in [8], in assay [2], in assay [3], in assay [4], in assay [6] and in assay [7] was greater than 100 µM throughout.
Turning to `CN(C)CCNC(=O)c1cccc2c1nc(-c1ccccn1)c1ccccc12`, the TGI in assay [8] was 36.3 µM; in assay [1], 96.8 µM; in assay [2] it was 30 µM; in [3] it was 38.6 µM; in assay [5], 29.2 µM; in assay [6], 67.9 µM. The compound further had a TGI in assay [7] of 22.7 µM.
For the compound `Oc1ccc(-c2nc3ccc4[nH]ncc4c3c3c2CCCC3)c2cccnc12`, the GI50 is 0.163 µM in [9]; 0.423 µM in [10]; 0.158 µM in [2]; 0.491 µM in [3]; 0.158 µM in [4]; 0.266 µM in assay [5]. Moreover, the GI50 in assay [11] was 0.697 µM; in assay [7], 0.128 µM. The TGI in [9] is 2.67 µM; in assay [10] it was 6.79 µM; in assay [2], 1.66 µM; in assay [3] it was 7.3 µM; in assay [4] it was 4.12 µM; in assay [5] it was 2.44 µM. Moreover, the TGI in [11] was 4.67 µM; in [7] it was 0.934 µM.
`C=C1C(=O)O[C@H]2[C@H]1CC(=O)/C(C)=C\CC[C@@]1(C)O[C@@H]21`: the GI50 in assay [9] is 4.43 µg/mL; in assay [10] it was 4.58 µg/mL; in assay [2] it was 3.94 µg/mL; in assay [3] it was 0.795 µg/mL; in assay [4] it was 0.514 µg/mL; in assay [5], 2.95 µg/mL. Besides, the GI50 in assay [11] is 2.57 µg/mL; in assay [7] it was 2.61 µg/mL. Moreover, the TGI in assay [9] amounted to 9.16 µg/mL; in assay [10], 8.82 µg/mL; in [2], 8.18 µg/mL; in [3] it was 3.71 µg/mL; in assay [4], 1.3 µg/mL; in assay [5] it was 9.41 µg/mL. In addition, the TGI in assay [11] worked out at 9.53 µg/mL; in assay [7], 5.85 µg/mL.
For `COC(=O)[C@H](Cc1ccccc1)NC(=O)[C@@H](OC)[C@@H]1Cc2cc3cc(OC4CC(OC5CC(O)C(O)C(C)O5)C(O)C(C)O4)c(C)c(O)c3c(O)c2C(=O)[C@H]1OC1CC(OC2CC(OC3CC(C)(O)C(O)C(C)O3)C(O)C(C)O2)C(O)C(C)O1` (stereo partly specified), the GI50 is 0.0131 µM in [9]; 0.0305 µM in [10]; 0.0106 µM in [2]; 0.0142 µM in [3]; 0.0109 µM in assay [4]; 0.0046 µM in assay [5]. In addition, the results for the GI50 in [11] and in [7] were 0.019 µM and 0.0343 µM, respectively. In addition, the TGI turned out to be 0.348 µM in assay [9]; 9.09 µM in assay [10]; 0.0821 µM in [2]; 0.0793 µM in assay [3]; 0.073 µM in assay [4]; 0.0252 µM in [5]. Moreover, the figures for the TGI in assay [11] and in [7] were greater than 14.3 µM and 0.332 µM, respectively.
`COc1ccc(S(=O)(=O)N/N=C(\C)CN2C(=O)c3ccccc3C2=O)cc1`: the TGI in assay [8], in assay [1], in assay [2], in assay [3], in [4] and in assay [6] was greater than 100 µM in each case. In assay [7], this compound showed a TGI greater than 100 µM.
